Measured values: publication PMC10006169, “A phase I trial of LXS196, a protein kinase C (PKC) inhibitor, for metastatic uveal melanoma” (British Journal of Cancer, 2023)
Where two headings read alike, the source gives them in different places.

Test: Plasma pharmacokinetics (LC-MS/MS)
Type: in vivo, human
Settings: for AUC(0-inf) / half-life / AUC(0-t) / Cmax: human, plasma, oral, 100 mg, C1D1, 100 mg QD
Procedure: In the dose escalation part of the study, PK samples were collected at various pre- and post-dose time points on C1D1, D2, D3, D15 and D16. Drug concentrations were assessed using a validated liquid chromatography-tandem mass spectrometry assay.

CC1(N)CCN(c2cccnc2NC(=O)c2nc(-c3ncccc3C(F)(F)F)cnc2N)CC1 [LXS196]
Increase in exposure (AUC0–t and Cmax) with dose (C1D1 and D15, QD and BID): under-proportional
Racc (accumulation ratio), Geo-mean (C1D15, 100 mg QD, n=2): 1.2
Racc (accumulation ratio), Mean (SD) (C1D15, 100 mg QD, n=2): 1.27 (0.570)
Racc (accumulation ratio), Median (Min, max) (C1D15, 100 mg QD, n=2): 1.27 (0.867, 1.67)
Cmin, Geo-mean (C1D15, 100 mg QD, n=3): 137 ng/mL
Cmin, Mean (SD) (C1D15, 100 mg QD, n=3): 144 (58.0) ng/mL
Cmin, Geo-mean (C1D15, 200 mg BID, n=5): 705 ng/mL
Cmin, Mean (SD) (C1D15, 200 mg BID, n=5): 787 (376) ng/mL
Racc (accumulation ratio), Geo-mean (C1D15, 200 mg BID, n=5): 0.989
Racc (accumulation ratio), Mean (SD) (C1D15, 200 mg BID, n=5): 1.11 (0.611)
Racc (accumulation ratio), Median (Min, max) (C1D15, 200 mg BID, n=5): 0.852 (0.539, 2.00)
Racc (accumulation ratio), Geo-mean (C1D15, 200 mg QD, n=2): 0.743
Racc (accumulation ratio), Mean (SD) (C1D15, 200 mg QD, n=2): 0.750 (0.145)
Racc (accumulation ratio), Median (Min, max) (C1D15, 200 mg QD, n=2): 0.75 (0.647, 0.852)
Cmin, Geo-mean (C1D15, 200 mg QD, n=3): 134 ng/mL
Cmin, Mean (SD) (C1D15, 200 mg QD, n=3): 143 (59.2) ng/mL
Racc (accumulation ratio), Geo-mean (C1D15, 300 mg BID, n=12): 1.09
Racc (accumulation ratio), Mean (SD) (C1D15, 300 mg BID, n=12): 1.15 (0.403)
Racc (accumulation ratio), Median (Min, max) (C1D15, 300 mg BID, n=12): 1.07 (0.549, 1.98)
Cmin, Geo-mean (C1D15, 300 mg BID, n=17): 912 ng/mL
Cmin, Mean (SD) (C1D15, 300 mg BID, n=17): 1040 (462) ng/mL
Cmin, Median (Min, max) (C1D15, 300 mg BID, n=17): 1070 (155, 2100) ng/mL
Racc (accumulation ratio), Geo-mean (C1D15, 300 mg QD, n=13): 0.895
Racc (accumulation ratio), Mean (SD) (C1D15, 300 mg QD, n=13): 0.934 (0.307)
Racc (accumulation ratio), Median (Min, max) (C1D15, 300 mg QD, n=13): 0.838 (0.577, 1.72)
Cmin, Geo-mean (C1D15, 300 mg QD, n=14): 344 ng/mL
Cmin, Mean (SD) (C1D15, 300 mg QD, n=14): 426 (319) ng/mL
Racc (accumulation ratio), Geo-mean (C1D15, 400 mg BID, n=3): 0.721
Racc (accumulation ratio), Mean (SD) (C1D15, 400 mg BID, n=3): 0.738 (0.204)
Racc (accumulation ratio), Median (Min, max) (C1D15, 400 mg BID, n=3): 0.643 (0.599, 0.972)
Cmin, Geo-mean (C1D15, 400 mg BID, n=4): 627 ng/mL
Cmin, Mean (SD) (C1D15, 400 mg BID, n=4): 647 (194) ng/mL
Cmin, Median (Min, max) (C1D15, 400 mg BID, n=4): 608 (464, 909) ng/mL
Racc (accumulation ratio), Geo-mean (C1D15, 500 mg QD, n=8): 0.767
Racc (accumulation ratio), Mean (SD) (C1D15, 500 mg QD, n=8): 0.793 (0.214)
Racc (accumulation ratio), Median (Min, max) (C1D15, 500 mg QD, n=8): 0.768 (0.484, 1.11)
Cmin, Geo-mean (C1D15, 500 mg QD, n=9): 622 ng/mL
Cmin, Mean (SD) (C1D15, 500 mg QD, n=9): 660 (234) ng/mL
Cmin, Geo-mean (C1D15, 1000 mg QD, n=2): 673 ng/mL
Cmin, Mean (SD) (C1D15, 1000 mg QD, n=2): 674 (10.6) ng/mL
Racc (accumulation ratio), Geo-mean (C1D15, 1000 mg QD, n=2): 0.709
Racc (accumulation ratio), Mean (SD) (C1D15, 1000 mg QD, n=2): 0.718 (0.161)
Racc (accumulation ratio), Median (Min, max) (C1D15, 1000 mg QD, n=2): 0.718 (0.604, 0.832)
PK variability (CV% for Cmax and AUC0–t) (between-patient): moderate
AUC(0-inf) (n=2, read-out: AUCinf, Geo-mean): 8560 ng·h/mL
AUC(0-inf) (n=2, read-out: AUCinf, Mean (SD)): 8640 ng·h/mL
AUC(0-inf) (n=2, read-out: AUCinf, Median (Min, max)): 8640 ng·h/mL
half-life (n=2, read-out: T1/2, Geo-mean (converted)): 8.43 h
half-life (n=2, read-out: T1/2, Mean (SD) (converted)): 8.49 h
half-life (n=2, read-out: T1/2, Median (Min, max) (converted)): 8.49 h
AUC(0-t) (n=3, read-out: AUC0-t, Geo-mean): 8440 ng·h/mL
AUC(0-t) (n=3, read-out: AUC0-t, Mean (SD)): 8670 ng·h/mL
AUC(0-t) (n=3, read-out: AUC0-t, Median (Min, max)): 8020 ng·h/mL
Cmax (n=3, read-out: Cmax, Geo-mean): 774 ng/mL
Cmax (n=3, read-out: Cmax, Mean (SD)): 776 ng/mL
Cmax (n=3, read-out: Cmax, Median (Min, max)): 811 ng/mL
